“And” between values parts separate entries of the source, which are not always exact repeats. Identical values can stand only once.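 1) Cells in 96-well plates. 2) Compound, 48 h, 5 concentrations. 3) Linear interpolation between surrounding doses. 4) Unreached endpoint = highest concentration. GI50 marks 50% less growth. Definition used: TGI = concentration required for complete inhibition of growth.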
tested on: SN12C renal; assay: NCI-60 cell line screen, 48 h

**Q.** With `CCOC(=O)CCc1c(C)c2c(OC(C)=O)cc(OC(C)=O)cc2oc1=O` as the compound, how does the TGI read?
**A.** Its TGI is 87 µM.

tested on: SNB-78 CNS; assay: NCI-60 cell line screen, 48 h

**Q.** With `N#C/C(=C\c1ccc(O)c(O)c1)C(N)=O` as the compound, how does the TGI read?
**A.** Its TGI is over 100 µM.

**Q.** Which TGI does the source give for `Cc1cn(C2CC(N(O)Cc3ccccc3)C(CO)O2)c(=O)[nH]c1=O` (stereo unspecified) here?
**A.** Its TGI is over 100 µM.

**Q.** For `O=C(CCC/C(CC(=O)c1ccc(Br)cc1)=N\O)Nc1ccccc1`, which TGI is on record?
**A.** Its TGI is over 100 µM.

**Q.** How did the TGI turn out when `COc1c(C)c2c(c(C)c1Cl)Oc1c(C=O)c(O)c(Cl)c(C)c1C(=O)O2` was run?
**A.** Its TGI is 54.7 µM.

**Q.** Which TGI does the source give for `NC(CCC(=O)NC(CSC(=O)N(O)c1ccc(Br)cc1)C(=O)NCC(=O)O)C(=O)O` (stereo unspecified) here?
**A.** Its TGI is over 100 µM.

**Q.** How did the TGI turn out when `CCOC(=O)CCc1c(C)c2c(OC(C)=O)cc(OC(C)=O)cc2oc1=O` was run?
**A.** Its TGI is over 100 µM.

tested on: HL-60(TB) leukemia; assay: NCI-60 cell line screen, 48 h

**Q.** How did the TGI turn out when `N#C/C(=C\c1ccc(O)c(O)c1)C(N)=O` was run?
**A.** Its TGI is 23.9 µM.

**Q.** How did the TGI turn out when `COc1cc2c(cc1OC)C(O)[C@H](Br)C(C)(C)O2` (stereo partly specified) was run?
**A.** The TGI was over 100 µM.

**Q.** With `Cc1cn(C2CC(N(O)Cc3ccccc3)C(CO)O2)c(=O)[nH]c1=O` (stereo unspecified) as the compound, how does the TGI read?
**A.** Its TGI is over 100 µM.

**Q.** How did the TGI turn out when `O=C(CCC/C(CC(=O)c1ccc(Br)cc1)=N\O)Nc1ccccc1` was run?
**A.** The TGI was over 100 µM.

**Q.** For `COc1c(C)c2c(c(C)c1Cl)Oc1c(C=O)c(O)c(Cl)c(C)c1C(=O)O2`, which TGI is on record?
**A.** The TGI was 57.8 µM.

**Q.** `NC(CCC(=O)NC(CSC(=O)N(O)c1ccc(Br)cc1)C(=O)NCC(=O)O)C(=O)O` (stereo unspecified) was tested. Which TGI did it give?
**A.** Its TGI is over 100 µM.

**Q.** With `CCOC(=O)CCc1c(C)c2c(OC(C)=O)cc(OC(C)=O)cc2oc1=O` as the compound, how does the TGI read?
**A.** Its TGI is over 100 µM.

tested on: EKVX NSCLC; assay: NCI-60 cell line screen, 48 h

**Q.** Which TGI does the source give for `N#C/C(=C\c1ccc(O)c(O)c1)C(N)=O` here?
**A.** Its TGI is over 100 µM.

**Q.** For `COc1cc2c(cc1OC)C(O)[C@H](Br)C(C)(C)O2` (stereo partly specified), which TGI is on record?
**A.** The TGI was over 100 µM.

**Q.** With `Cc1cn(C2CC(N(O)Cc3ccccc3)C(CO)O2)c(=O)[nH]c1=O` (stereo unspecified) as the compound, how does the TGI read?
**A.** The TGI was over 100 µM.

**Q.** For `O=C(CCC/C(CC(=O)c1ccc(Br)cc1)=N\O)Nc1ccccc1`, which TGI is on record?
**A.** The TGI was over 100 µM.

**Q.** Which TGI does the source give for `COc1c(C)c2c(c(C)c1Cl)Oc1c(C=O)c(O)c(Cl)c(C)c1C(=O)O2` here?
**A.** The TGI was 46.2 µM.

**Q.** Which TGI does the source give for `NC(CCC(=O)NC(CSC(=O)N(O)c1ccc(Br)cc1)C(=O)NCC(=O)O)C(=O)O` (stereo unspecified) here?
**A.** The TGI was over 100 µM.

**Q.** With `CCOC(=O)CCc1c(C)c2c(OC(C)=O)cc(OC(C)=O)cc2oc1=O` as the compound, how does the TGI read?
**A.** Its TGI is over 100 µM.

tested on: DLD-1 colon; assay: NCI-60 cell line screen, 48 h

**Q.** Which TGI does the source give for `N#C/C(=C\c1ccc(O)c(O)c1)C(N)=O` here?
**A.** Its TGI is over 100 µM.

**Q.** With `COc1cc2c(cc1OC)C(O)[C@H](Br)C(C)(C)O2` (stereo partly specified) as the compound, how does the TGI read?
**A.** Its TGI is over 100 µM.

**Q.** `O=C(CCC/C(CC(=O)c1ccc(Br)cc1)=N\O)Nc1ccccc1` was tested. Which TGI did it give?
**A.** The TGI was over 100 µM.

**Q.** How did the TGI turn out when `COc1c(C)c2c(c(C)c1Cl)Oc1c(C=O)c(O)c(Cl)c(C)c1C(=O)O2` was run?
**A.** Its TGI is over 100 µM.

**Q.** Which TGI does the source give for `NC(CCC(=O)NC(CSC(=O)N(O)c1ccc(Br)cc1)C(=O)NCC(=O)O)C(=O)O` (stereo unspecified) here?
**A.** Its TGI is over 100 µM.

**Q.** `CCOC(=O)CCc1c(C)c2c(OC(C)=O)cc(OC(C)=O)cc2oc1=O` was tested. Which TGI did it give?
**A.** Its TGI is over 100 µM.

tested on: KM12 colon; assay: NCI-60 cell line screen, 48 h

**Q.** How did the TGI turn out when `N#C/C(=C\c1ccc(O)c(O)c1)C(N)=O` was run?
**A.** The TGI was over 100 µM.

**Q.** For `COc1cc2c(cc1OC)C(O)[C@H](Br)C(C)(C)O2` (stereo partly specified), which TGI is on record?
**A.** Its TGI is over 100 µM.

**Q.** With `Cc1cn(C2CC(N(O)Cc3ccccc3)C(CO)O2)c(=O)[nH]c1=O` (stereo unspecified) as the compound, how does the TGI read?
**A.** The TGI was over 100 µM.

**Q.** With `O=C(CCC/C(CC(=O)c1ccc(Br)cc1)=N\O)Nc1ccccc1` as the compound, how does the TGI read?
**A.** Its TGI is over 100 µM.

**Q.** For `COc1c(C)c2c(c(C)c1Cl)Oc1c(C=O)c(O)c(Cl)c(C)c1C(=O)O2`, which TGI is on record?
**A.** The TGI was over 100 µM.

**Q.** With `NC(CCC(=O)NC(CSC(=O)N(O)c1ccc(Br)cc1)C(=O)NCC(=O)O)C(=O)O` (stereo unspecified) as the compound, how does the GI50 read?
**A.** The GI50 was > 100 µM and 45 µM.

**Q.** What about the TGI of the same compound?
**A.** The TGI was over 100 µM.

**Q.** `CCOC(=O)CCc1c(C)c2c(OC(C)=O)cc(OC(C)=O)cc2oc1=O` was tested. Which TGI did it give?
**A.** Its TGI is over 100 µM.

tested on: SR leukemia; assay: NCI-60 cell line screen, 48 h

**Q.** Which TGI does the source give for `COc1cc2c(cc1OC)C(O)[C@H](Br)C(C)(C)O2` (stereo partly specified) here?
**A.** Its TGI is over 100 µM.

**Q.** How did the TGI turn out when `Cc1cn(C2CC(N(O)Cc3ccccc3)C(CO)O2)c(=O)[nH]c1=O` (stereo unspecified) was run?
**A.** Its TGI is over 100 µM.

**Q.** `COc1c(C)c2c(c(C)c1Cl)Oc1c(C=O)c(O)c(Cl)c(C)c1C(=O)O2` was tested. Which TGI did it give?
**A.** Its TGI is 89.4 µM.

**Q.** `NC(CCC(=O)NC(CSC(=O)N(O)c1ccc(Br)cc1)C(=O)NCC(=O)O)C(=O)O` (stereo unspecified) was tested. Which TGI did it give?
**A.** The TGI was over 100 µM.

tested on: NCI/ADR-RES ovarian; assay: NCI-60 cell line screen, 48 h

**Q.** For `NC(CCC(=O)NC(CSC(=O)N(O)c1ccc(Br)cc1)C(=O)NCC(=O)O)C(=O)O` (stereo unspecified), which TGI is on record?
**A.** The TGI was over 50 µM.

tested on: MDA-MB-231 breast; assay: NCI-60 cell line screen, 48 h

**Q.** How did the TGI turn out when `NC(CCC(=O)NC(CSC(=O)N(O)c1ccc(Br)cc1)C(=O)NCC(=O)O)C(=O)O` (stereo unspecified) was run?
**A.** The TGI was over 50 µM.

tested on: TK-10 renal; assay: NCI-60 cell line screen, 48 h

**Q.** How did the TGI turn out when `N#C/C(=C\c1ccc(O)c(O)c1)C(N)=O` was run?
**A.** The TGI was over 100 µM.

**Q.** `COc1cc2c(cc1OC)C(O)[C@H](Br)C(C)(C)O2` (stereo partly specified) was tested. Which TGI did it give?
**A.** Its TGI is over 100 µM.

**Q.** `Cc1cn(C2CC(N(O)Cc3ccccc3)C(CO)O2)c(=O)[nH]c1=O` (stereo unspecified) was tested. Which TGI did it give?
**A.** The TGI was over 100 µM.

**Q.** With `O=C(CCC/C(CC(=O)c1ccc(Br)cc1)=N\O)Nc1ccccc1` as the compound, how does the TGI read?
**A.** Its TGI is over 100 µM.

**Q.** Which TGI does the source give for `COc1c(C)c2c(c(C)c1Cl)Oc1c(C=O)c(O)c(Cl)c(C)c1C(=O)O2` here?
**A.** The TGI was over 100 µM.
